Key:
[1] = Pharmacokinetics in rats after oral administration; type: in vivo, rat; conditions: 10 mg/kg oral
Experimental: Male Long-Evans rats with body weights ˜250 grams (Charles River Laboratories, Raleigh, NC, USA) were used in this study. All rats were housed individually in a climate-controlled room under a 12 h light/dark cycle. Food and water were available ad libitum throughout the experiments. All experimental procedures were conducted in accordance with the Guide for the Care and Use of Laboratory Animals and were approved by the Animal Care and Use Committee of the National Institute on Drug Abuse of the U.S. National Institutes of Health. Experimental (oral gavage) procedures: The animals were gently restrained (grasp the animal by the loose skin of the neck and back) to immobilize the head but not such that the animals vocalize or show other signs of distress. Maintained the animal in an upright (vertical) position and passed the gavage needle (19-gauge) along the side of the mouth. Following the roof of the mouth, advanced the needle into the esophagus and toward the stomach. After the needle was passed to the correct length, the compound was injected. […] A volume of 3 μL was injected onto the ultra-performance liquid chromatography (UPLC) instrument for quantitative analysis using a temperature-controlled autosampler operating at 10° C. […] Quantification was performed in multiple-reaction monitoring (MRM) mode. […]

[2] = Phase I metabolic stability in monkey liver microsomes; type: in vitro ADME, rhesus monkey; conditions: monkey liver microsomes, Phase I
Experimental: Methods: Phase I metabolic stability assay was conducted in rat and rhesus monkey liver microsomes. For phase I metabolism, the reaction was carried out with 100 mM potassium phosphate buffer, pH 7.4, in the presence of NADPH regenerating system (1.3 mM NADPH, 3.3 mM glucose 6-phosphate, 3.3 mM MgCl2, 0.4 U/mL glucose-6-phosphate dehydrogenase, 50 μM sodium citrate). Reactions in triplicate were initiated by addition of the liver microsomes to the incubation mixture (compound final concentration was 10 μM; 0.5 mg/mL microsomes). Negative controls in the absence of cofactors were carried out to determine the specific cofactor-free degradation. Compound disappearance was monitored via LC/MS/MS. Chromatographic analysis was performed using an Accela™ ultra high-performance system consisting of an analytical pump, and an autosampler coupled with TSQ Vantage mass spectrometer (Thermo Fisher Scientific Inc., Waltham MA). […] The mobile phase used was composed of 0.1% Formic Acid in Acetonitrile and 0.1% Formic Acid in H2O with gradient elution, starting with 10% (organic) linearly increasing to 99% up to 2 min, maintaining at 99% (2-2.5 min) and re-equilibrating to 10% by 2.7 min. The total run time for each analyte was 5.0 min.

% at 30 min. ([2]; 30 min) [%] | % at 60 min. ([2]; 60 min) [%] | Kp ([1]; male, Long-Evans, rat, brain and plasma, read-out: brain/plasma ratio) | SMILES | exposures in brain and plasma, R- versus S-enantiomer ([1]; FIG. 12A)
9 | 4 |  | CCc1cc(Cl)c(OC)c(N2CCN(C[C@H](O)CCNC(=O)c3cc4ccccc4[nH]3)CC2)c1 [(R)-29, (R)—N-(4-(4-(3-chloro-5-ethyl-2-methoxyphenyl)piperazin-1-yl)-3-hydroxybutyl)-1H-indole-2-carboxamide] | twice higher exposures in both brain and plasma
 |  | 6 | CCc1cccc(N2CCN(C[C@@H](O)CCNC(=O)c3cc4ccccc4[nH]3)CC2)c1Cl [(S)-19, (S)—N-(4-(4-(2-chloro-3-ethylphenyl)piperazin-1-yl)-3-hydroxybutyl)-1H-indole-2-carboxamide] | 

— patent US12162861B2, “Dopamine D3 receptor selective antagonists/partial agonists; method of making; and use thereof” (THE UNITED STATES OF AMERICA, AS REPRESENTED BY THE …, priority 2016, dated 2024)
